As a reminder, the inhibition is the change of the read-out against control, counted positive when it falls. As usually defined, the IC50 is the concentration needed to halve the response being measured.

For one assay, the target named is T1, Recombinant human LTC4 synthase (Homo sapiens, UniProt Q16873).
T1 construct: made in house; host or cells: Pichia pastoris
T1 sequence (Q16873 1-150): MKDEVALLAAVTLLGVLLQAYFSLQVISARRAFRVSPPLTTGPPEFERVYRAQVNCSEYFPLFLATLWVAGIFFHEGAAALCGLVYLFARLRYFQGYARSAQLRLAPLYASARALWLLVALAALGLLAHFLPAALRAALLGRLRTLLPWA
Nature of the assay: In vitro LTC4 synthase assay (LTA4 to LTC4, HTRF detection). The format is biochemical. The conditions noted are these: 5 min; total concentration of title compounds in the assay 10 μM. The procedure:
In the assay, LTC4 synthase catalyses the reaction where the substrate LTA4 is converted to LTC4. Recombinant human LTC4 synthase is expressed in Piccia pastoralis and the purified enzyme is dissolved in 25 mM tris-buffer pH 7.8 supplemented with 0.1 mM glutathione (GSH) and stored at −80° C. The assay is performed in phosphate buffered saline (PBS) pH 7.4 and 5 mM GSH in 384-well plates.
The following is added chronologically to each well:
1. 48 μL LTC4 synthase in PBS with 5 mM GSH. The total protein concentration in this solution is 0.5 μg/mL. 2. 1 μL inhibitor in DMSO (final concentration 10 μM). 3. Incubation of the plate at room temperature for 10 min. 4. 1 μL LTA4 (final concentration 2.5 μM). 5. Incubation of the plate at room temperature for 5 min. 6. 10 μL of the incubation mixture is analysed using homogenous time resolved fluorescent (HTRF) detection.
(TR-FRET usually uses a lanthanide donor and a delayed reading to cut background.)
Take `CN(c1ccc(Cl)cc1)c1ccc(C(=O)c2ccc([S+]([O-])c3ccc(Cl)cc3)c(C(=O)O)c2)cc1` (centres unmarked) [Example 1:2, 5-{4-[(4-Chlorophenyl)(methyl)amino]benzoyl}-2-(4-chlorophenylsulfinyl)benzoic acid]: the inhibition at 10 µM was 100%.
On the same count and under the same terms, then `CN(c1ccc(Cl)cc1)c1ccc(C(=O)c2ccc([S+]([O-])c3ccc(F)c(F)c3)c(C(=O)O)c2)nc1` (centres unmarked) [Example 1:13, 5-{5-[(4-Chlorophenyl)methylamino]pyridine-2-carbonyl}-2-(3,4-difluorophenyl-sulfinyl)benzoic acid], with 99%.

The assay is the same for the next values; noted with them: Table 4, title compounds of Example 4.
Consider `COc1cccc(Sc2cc(C(=O)O)cc(C(=O)c3ccc(N(C)c4ccc(Cl)cc4)cc3)c2)c1` [4:5, 3-{4-[(4-Chlorophenyl)(methyl)amino]benzoyl}-5-(3-methoxyphenyl-sulfanyl)benzoic acid], for which the IC50 came out at 143 nM.
As to `CN(c1ccc(Cl)cc1)c1ccc(C(=O)c2cc(Sc3cccc(OC(F)(F)F)c3)cc(C(=O)O)c2)cc1` [4:8, 3-{4-[(4-Chlorophenyl)(methyl)amino]benzoyl}-5-(3-(trifluoromethoxy)-phenylsulfanyl)benzoic acid], the IC50 worked out at 148 nM.

The assay is the same for the next values; noted with them: title compounds of the Examples.
Take `CN(c1ccc(Cl)cc1)c1ccc(C(=O)c2cc(Sc3ccccc3)cc(C(=O)O)c2)cc1` [2:30, 3-(4-((4-Chlorophenyl)(methyl)amino)benzoyl)-5-(phenysulfanyl)benzoic acid]: the IC50 worked out at 175 nM.
Consider `CCCCCC[S+]([O-])c1ccc(C(=O)c2ccc(N(C)c3ccc(Cl)cc3)cn2)cc1C(=O)O` (centres unmarked) [Example 1:22, 5-{5-[(4-Chlorophenyl)methylamino]pyridine-2-carbonyl}-2-(1-hexylsulfinyl)-benzoic acid], for which the IC50 was 41 nM.
Still for that read-out and setting: then `CN(c1ccc(Cl)cc1)c1ccc(C(=O)c2ccc([S+]([O-])Cc3ccccc3)c(C(=O)O)c2)cc1` (centres unmarked) [1:9, 2-(Benzylsulfinyl)-5-{4-[(4-chlorophenyl)(methyl)amino]benzoyl}benzoic acid], with 109 nM; and `CN(c1ccc(Cl)cc1)c1ccc(C(=O)c2ccc(Sc3ccc(F)c(F)c3)c(C(=O)O)c2)nc1` [2:6], with 47 nM.
Same read-out and setting: then `O=C(c1ccc([S+]([O-])c2ccc(Br)cc2)c(C(=O)O)c1)c1ccc(N(CC2CC2)c2ccc(Cl)cc2)cn1` (centres unmarked) [1:17, 2-(4-Bromophenylsulfinyl)-5-{5-[(4-chlorophenyl)cyclopropylmethylamino]-pyridine-2-carbonyl}benzoic acid], with 34 nM.
The same measure, in the same setting: the same measure for `CCCCCCSc1cc(C(=O)O)cc(C(=O)c2ccc(N(C)c3ccc(Cl)cc3)cn2)c1` [2:23, 3-{5-[(4-Chlorophenyl)methylamino]pyridine-2-carbonyl}-5-(1-hexyl)-sulfanylbenzoic acid]: 215 nM; for `O=C(c1ccc(Sc2ccc(Cl)cc2)c(C(=O)O)c1)c1ccc(N(CC2CC2)c2ccc(Cl)cc2)cn1` [2:9, 5-{5-[(4-Chlorophenyl)cyclopropylmethylamino]pyridine-2-carbonyl}-2-(4-chlorophenylsulfanyl)benzoic acid]: 74 nM; for `CCCCCC[S+]([O-])c1cc(C(=O)O)cc(C(=O)c2ccc(N(C)c3ccc(Cl)cc3)cn2)c1` (centres unmarked) [Example 1:20, 3-{5-[(4-Chlorophenyl)methylamino]pyridine-2-carbonyl}-5-(1-hexylsulfinyl)-benzoic acid]: 404 nM.
Consider `CN(c1ccc(Cl)cc1)c1ccc(C(=O)c2ccc([S+]([O-])C3CCCCC3)c(C(=O)O)c2)cc1` (centres unmarked) [1:5, 5-{4-[(4-Chlorophenyl)(methyl)amino]benzoyl}-2-(cyclohexylsulfinyl)benzoic acid], for which the IC50 was 134 nM.
As to `CN(c1ccc(Cl)cc1)c1ccc(C(=O)c2ccc([S+]([O-])c3ccc(Cl)cc3)c(C(=O)O)c2)cc1` (centres unmarked) [Example 1:2, 5-{4-[(4-Chlorophenyl)(methyl)amino]benzoyl}-2-(4-chlorophenylsulfinyl)benzoic acid], the IC50 amounted to 66 nM.
Still for that read-out and setting: the same measure for `CCCCCC[S+]([O-])c1ccc(C(=O)c2ccc(N(CC3CC3)c3ccc(Cl)cc3)cc2)cc1C(=O)O` (centres unmarked) [Example 1:12, 5-{4-[(4-Chlorophenyl)cyclopropylmethylamino]benzoyl}-2-(1-hexylsulfinyl)-benzoic acid]: 29 nM; for `O=C(c1ccc(N(CC2CC2)c2ccc(Cl)cc2)cc1)c1ccc(Sc2ccccc2)c(C(=O)O)c1` [2:8, 5-{4-[(4-Chlorophenyl)cyclopropylmethylamino]benzoyl}-2-phenylsulfanyl-benzoic acid]: 74 nM; for `CN(c1ccc(Cl)cc1)c1ccc(C(=O)c2ccc([S+]([O-])c3ccc(F)c(F)c3)c(C(=O)O)c2)nc1` (centres unmarked) [Example 1:13, 5-{5-[(4-Chlorophenyl)methylamino]pyridine-2-carbonyl}-2-(3,4-difluorophenyl-sulfinyl)benzoic acid]: 87 nM.
As to `COc1ccc(Sc2ccc(C(=O)c3ccc(OCc4cccc(Cl)c4)cn3)cc2C(=O)O)cc1` [Example 2:22, 5-[5-(3-Chlorobenzyloxy)pyridine-2-carbonyl]-2-(4-methoxyphenyl-sulfanyl)benzoic acid], the IC50 is 252 nM.
On to `O=C(c1ccc([S+]([O-])c2ccc(C(F)(F)F)cc2)c(C(=O)O)c1)c1ccc(N(CC2CC2)c2ccc(Cl)cc2)cn1` (centres unmarked) [Example 1:14, 5-{5-[(4-Chlorophenyl)cyclopropylmethylamino]pyridine-2-carbonyl}-2-(4-tri-fluoromethylphenylsulfinyl)benzoic acid], for which the IC50 came to 48 nM.
On the same count and under the same terms, then `O=C(c1ccc(Sc2ccc(F)cc2)c(C(=O)O)c1)c1ccc(N(CC2CC2)c2ccc(Cl)cc2)cn1` [2:11, 5-{5-[(4-Chlorophenyl)cyclopropylmethylamino]pyridine-2-carbonyl}-2-(4-fluorophenylsulfanyl)benzoic acid], with 46 nM.
